Where “and” joins values, the source holds several entries; their conditions need not be identical. Equal values may be shown once. Read-outs that look alike come from different tables or passages of the source. Marks after values point to notes of the source that are not given here. Each block holds one compound with its values, some of them ahead of it.
Columns and labels:
[1] = target: T1, 5HT3A receptors (serotonin 3A receptors) (Homo sapiens, UniProt P46098); experiment: Competition binding assay (serotonin 3A receptors), [3H]GR65630; settings: for IC50: [3H]GR65630 competition, HEK 293 membranes expressing 5HT3A; for Fold-change Relative to Parent: IC50 relative to metoclopramide, 5HT3A binding
T1 construct: expressed in transfected cells
T1 sequence (P46098 24-478): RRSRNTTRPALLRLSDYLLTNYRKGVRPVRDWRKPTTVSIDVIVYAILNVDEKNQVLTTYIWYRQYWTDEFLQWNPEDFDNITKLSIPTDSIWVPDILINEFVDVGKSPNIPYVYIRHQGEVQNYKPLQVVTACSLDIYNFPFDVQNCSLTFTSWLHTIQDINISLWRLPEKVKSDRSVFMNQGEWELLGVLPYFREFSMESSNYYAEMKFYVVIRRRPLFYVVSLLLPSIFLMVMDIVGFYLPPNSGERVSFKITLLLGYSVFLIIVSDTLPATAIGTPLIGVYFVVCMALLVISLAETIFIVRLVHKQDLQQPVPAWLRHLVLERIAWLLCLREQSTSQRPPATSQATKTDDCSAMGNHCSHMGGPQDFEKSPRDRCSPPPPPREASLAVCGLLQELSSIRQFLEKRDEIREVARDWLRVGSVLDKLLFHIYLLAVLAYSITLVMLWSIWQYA
Description: [^3H] […] To start the assay, 1 uL of compound was added into 96-well v-bottom plates, followed by the addition of 50 uL of diluted membrane preparation, then finally diluted [^3H] […] The assay mixture was incubated for 60 minutes at room temperature with shaking. Following incubation, bound [^3H] […] Filter plates were air dried for two minutes, and then 50 uL of MicroScint-20 was added into each well. Radioactivity counts were quantified using a Top Count plate reader (Perkin Elmer). Data was analyzed using one-site binding competition non-linear regression curve fitting on GraphPad Prism.

[2] = target: T2, dopamine 2S receptor (Homo sapiens, UniProt P14416); experiment: β-Arrestin functional assay (dopamine), antagonist mode; format: cell-based; settings: for IC50: β-arrestin interaction, CHO-K1 cells expressing D2S, dopamine at EC80 (400 nM); for Fold-change Relative to Parent: IC50 relative to metoclopramide, D2S β-arrestin
T2 construct: host or cells: CHO-K1 (PathHunter eXpress β-arrestin cells)

[3] = system: human hepatocytes; experiment: MetID determination in human hepatocytes; format: in vitro ADME
Description: (§1) Cryopreserved human and Sprague-Dawley rat hepatocytes were thawed in a 37° C. water bath. […] Samples were obtained from separate plates for each time point during the incubation. At each sampling time, the plates were removed from the incubator, quenched by adding 100 μL cold acetonitrile, and placed in an ice bath until centrifugation at 4,000 rpm for 30 minutes at 4° C. Supernatants were stored at or below −70° C. until LC-MS/MS analysis could be conducted. The liquid chromatography system used was Agilent 1100 Autosampler, Binary Pump, DAD and Column Enclosure. Tandem mass spectrometry was conducted using a Thermo DECA XP MAX Ion Trap Mass Spectrometer. The ion source was Electrospray (+) and the LC column used was a Varian, Polaris 5 C18-A (250×2.1 mm, 5 micron) column.
(§2) Metabolic pathways of metoclopramide and conjugates were determined in rat and human hepatocytes. N-dealkylation was the major metabolic pathway for metoclopramide in rats, and metabolism in human hepatocytes was minimal. […] FIG. 2 and FIG. 3 show the metabolic pathway of for mPEG1-N-metoclopramide and mPEG4-N-metoclopramide, respectively. […] In this figure, different metabolites for each conjugate are denoted with the “M” and correspond to the designation provided in the figure for a given conjugate. For example, metabolite M1 for mPEG1-N-metoclopramide in Table 6 corresponds to M1 in FIG. 2, metabolite M2 for mPEG4-N-metoclopramide in Table 6 corresponds to M2 in FIG. 3 and metabolite M3 mPEG8-N-metoclopramide in Table 6 corresponds to M3 in FIG. 4.

[4] = system: Sprague-Dawley rat hepatocytes; experiment: MetID determination in rat hepatocytes; format: in vitro ADME
Description: as §1, §2

[5] = Chemical stability in potassium phosphate buffer; format: physicochemical; settings: 100 mM potassium phosphate buffer, pH 7.4 at 37° C. for up to 30 minutes
Description: FIG. 5B is a plot of the results of a chemical stability study of test articles in a 100 mM potassium phosphate buffer, pH 7.4 at 37° C. for up to thirty minutes.

[6] = target: T1, 5HT3A receptors (serotonin 3A receptors); settings: value in brackets after the IC50; cited from earlier work
[7] = in vivo; settings: male, Sprague Dawley, rat, plasma
Description: (§3) Rat pharmacokinetic (“PK”) characterization was conducted in male Sprague Dawley Rats (Rattus Norvegicus) weighing between 210-260 gm (Charles River Laboratories (Hollister, Calif.)). Rats were fed a standard diet and water was available ad-libidum at all times. […] Animals were dosed either orally (2.5 mg/Kg) via gavage or intravenously (0.5 mg/kg) via the jugular vein cannula. Blood samples (˜0.15 mL) were collected through carotid artery cannula at respective time points and transferred immediately into K2EDTA-coated tubes (that contain quenching media-acetic acid, PMSF and Dichlorvos) and placed on ice. The samples were centrifuged within thirty minutes after collection at 10,000 RPM for five minutes and the resulting plasma was separated. Plasma were transferred into microfuge tubes and placed on dry ice immediately. The plasma samples were stored at approximately −70° C. until shipped on dry ice for Bioanalysis by LC/MS/MS. Urine samples were collected using metabolic cages into a tube containing citric acid (4 mg for 0-4 and 4-8 hr interval and 16 mg for 8-24 hr interval) on wet ice at the intervals specified in the study design. After the completion of urine collection at each interval, each cage was rinsed with 2 mL of deionized water (1 mL each time). The rinse was collected in the separate labeled container (containing 2 mg of citric acid) as the urine. Following this rinse another 2 ml rinse was carried out with ethanol (1 ml each time). The rinse was also collected in the separate labeled container as the urine. Samples were stored frozen at −70° C. until bioanalysis by LC/MS/MS was performed.
(§4) Pharmacokinetic parameters were determined by non-compartmental analysis using Phoenix®WinNonlin® (Version 6.3; Pharsight Corp., Mountain View, Calif.). Nominal doses and sampling times were used for the analysis. Concentrations reported as BLQ were treated as missing unless they were pre-dose; then they were set to zero. Maximum plasma concentration (Cmax) and time of observed maximum plasma analyte concentration (Tmax) were generated by Phoenix®WinNonlin®, directly from the inputed dataset. […] Area under the plasma concentration-time curve from time 0 to infinity (AUCinf) was calculated as the sum of AUClast and the last observed concentration divided by k. Total plasma clearance (CL) was calculated as Dose/AUCinf. Apparent volume of distribution at steady state (Vss) was calculated as MRTinf*CL, where MRT is the mean residence time.

[8] = target: T3, dopamine 2L receptors (Homo sapiens, UniProt P14416); settings: read-out: expected IC50; expected value; cited from earlier work
[9] = target: T4, CYP2D6 (Homo sapiens, UniProt P10635); settings: cited from earlier work
[10] = target: T3, dopamine 2L receptors; experiment: Competition binding assay (dopamine 2L receptors), [3H]methylspiperone; set-up: expressed in transfected cells; settings: for Fold-change Relative to Parent: IC50 relative to metoclopramide, D2L binding
Description: [^3H] Methylspiperone was diluted in assay buffer to a final concentration of 0.4 nM. To start the assay, 1 uL of compound was added into 96-well v-bottom plates, followed by the addition of 50 uL of diluted membrane preparation, then finally diluted [^3H] Methylspiperone was added. The assay mixture was incubated for 60 minutes at room temperature with shaking. Following incubation, bound [^3H] methylspiperone on 5% PEI soaked GF/B filter plates using a Filtermate Harvester (Perkin Elmer) were then washed four times with ice cold wash buffer (50 mM Tris-HCl, pH 7.5). Filter plates were air dried for two minutes, and then 50 uL of MicroScint-20 was added into each well. Radioactivity counts were quantified using a Top Count plate reader (Perkin Elmer). Data was analyzed using one-site binding competition non-linear regression curve fitting on GraphPad Prism.

[11] = Rat PK (intravenous and oral)
Description: as §3, §4

[12] = target: T5, 5HT4B receptors (serotonin 4B receptors) (Homo sapiens, UniProt Q13639); settings: value in brackets after the IC50; cited from earlier work
T5 construct: expressed in transfected cells

[13] = target: T5, 5HT4B receptors (serotonin 4B receptors); experiment: Competition binding assay (serotonin 4B receptors), [3H]GR113808; settings: for Fold-change Relative to Parent: IC50 relative to metoclopramide, 5HT4B binding; for IC50: [3H]GR113808 competition, HEK 293 membranes expressing 5HT4B
[14] = target: T4, CYP2D6; experiment: Metabolic stability in human recombinant CYP2D6 enzyme; format: in vitro ADME; set-up: purchased Xenotech, LLC; settings: 1 μM, 100 pmol/mL CYP2D6, up to 30 min, 37° C.
[15] = incubation of 10 μM metoclopramide, parent and its metabolites M (FIG. 1)
[16] = [3H]methylspiperone competition, HEK 293 membranes expressing D2L, read-out: IC50
[17] = preliminary run that was not quality controlled, read-out: IC50, preliminary run

T5 sequence (Q13639 whole entry): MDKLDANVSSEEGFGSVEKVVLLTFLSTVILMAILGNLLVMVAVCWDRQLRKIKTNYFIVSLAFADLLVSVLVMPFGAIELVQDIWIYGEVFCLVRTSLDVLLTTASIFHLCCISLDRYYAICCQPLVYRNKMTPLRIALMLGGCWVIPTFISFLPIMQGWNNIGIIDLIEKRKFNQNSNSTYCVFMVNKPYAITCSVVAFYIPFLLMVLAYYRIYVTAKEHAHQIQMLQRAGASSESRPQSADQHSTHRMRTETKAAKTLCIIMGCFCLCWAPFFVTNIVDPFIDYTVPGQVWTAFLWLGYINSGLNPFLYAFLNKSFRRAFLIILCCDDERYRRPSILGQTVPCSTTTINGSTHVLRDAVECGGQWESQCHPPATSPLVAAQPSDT
T4 sequence (P10635 whole entry): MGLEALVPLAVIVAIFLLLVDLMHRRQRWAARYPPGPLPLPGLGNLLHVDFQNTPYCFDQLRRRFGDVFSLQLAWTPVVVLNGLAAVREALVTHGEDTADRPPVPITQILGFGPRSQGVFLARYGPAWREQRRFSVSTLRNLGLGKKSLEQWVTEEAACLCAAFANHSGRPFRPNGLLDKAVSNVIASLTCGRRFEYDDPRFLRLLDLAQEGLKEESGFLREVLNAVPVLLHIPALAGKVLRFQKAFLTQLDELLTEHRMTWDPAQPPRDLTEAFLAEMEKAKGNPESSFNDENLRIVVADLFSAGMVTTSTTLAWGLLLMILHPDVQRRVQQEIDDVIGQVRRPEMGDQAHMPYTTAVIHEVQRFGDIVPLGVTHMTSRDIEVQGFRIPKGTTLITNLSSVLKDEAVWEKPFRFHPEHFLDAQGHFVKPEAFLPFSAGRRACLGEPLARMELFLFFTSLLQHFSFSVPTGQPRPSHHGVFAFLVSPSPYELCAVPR
T3 sequence (P14416 whole entry): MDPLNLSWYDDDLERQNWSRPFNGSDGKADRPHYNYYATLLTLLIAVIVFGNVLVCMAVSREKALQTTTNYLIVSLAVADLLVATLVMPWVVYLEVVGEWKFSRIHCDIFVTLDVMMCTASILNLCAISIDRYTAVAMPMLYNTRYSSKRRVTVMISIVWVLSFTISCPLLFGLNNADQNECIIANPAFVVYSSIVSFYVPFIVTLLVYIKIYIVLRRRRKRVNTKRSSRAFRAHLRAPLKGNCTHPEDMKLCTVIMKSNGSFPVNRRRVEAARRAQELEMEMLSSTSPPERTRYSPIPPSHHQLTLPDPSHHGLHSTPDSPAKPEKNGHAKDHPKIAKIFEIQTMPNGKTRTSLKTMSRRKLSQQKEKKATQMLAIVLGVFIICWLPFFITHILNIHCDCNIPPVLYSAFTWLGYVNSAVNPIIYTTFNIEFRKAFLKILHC
T2 sequence (P14416 1-414 isoform P14416-2): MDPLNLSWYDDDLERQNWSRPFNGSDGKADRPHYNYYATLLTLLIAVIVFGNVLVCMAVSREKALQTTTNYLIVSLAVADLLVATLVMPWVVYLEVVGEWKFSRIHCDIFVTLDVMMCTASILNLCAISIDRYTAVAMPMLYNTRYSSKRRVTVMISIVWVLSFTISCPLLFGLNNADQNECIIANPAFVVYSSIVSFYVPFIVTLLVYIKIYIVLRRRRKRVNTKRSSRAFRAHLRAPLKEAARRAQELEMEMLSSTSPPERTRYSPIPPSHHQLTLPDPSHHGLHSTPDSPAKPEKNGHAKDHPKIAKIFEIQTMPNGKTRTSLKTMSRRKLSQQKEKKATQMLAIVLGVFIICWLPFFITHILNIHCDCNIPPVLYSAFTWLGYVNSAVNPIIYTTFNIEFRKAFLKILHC

Compound: CCN(CC)CCNC(=O)c1cc(Cl)c(N)cc1OC [Metoclopramide, N-(2-diethylaminoethyl)-2-methoxy-4-amino-5-chlorobenzamide, reference compound]
- IC50 ([1]; IC50 [M]): 6.86e-06 M
- IC50 ([1]; IC50 [nM]): 6.86e-06 M
- IC50 [2]: 0.0821 µM and 0.0822 µM
- extent of metabolism in human hepatocytes ([3]; human hepatocytes): minimal
- % of Total Metabolism, Human Hep 1 hr [3, 15]: 96.8%
- % of Total Metabolism, Human Hep 4 hr [3, 15]: 97.5%
- % of Total Metabolism, Rat Hep 1 hr [4, 15]: 87%
- % of Total Metabolism, Rat Hep 4 hr [4, 15]: 61%
- major metabolic pathway ([4]; rat hepatocytes): N-dealkylation
- chemical stability [5]: chemically stable
- pKi [6]: 5.9-6.4
- AUC(0-inf) ([7]; iv, 0.5 mg/kg): 66.8 ng·h/mL
- MRT inf ([7]; iv, 0.5 mg/kg): 32.4 min
- Vd ([7]; iv, 0.5 mg/kg): 4.12 L/kg
- clearance ([7]; iv, 0.5 mg/kg): 126 mL/min/kg
- half-life ([7]; iv, 0.5 mg/kg): 30 min
- AUC ([7]; po, 2.5 mg/kg): 261 ng·h/mL
- CL/F ([7]; po, 2.5 mg/kg): 131 mL/min/kg
- Cmax ([7]; po, 2.5 mg/kg): 166 ng/mL
- Tmax ([7]; po, 2.5 mg/kg): 22.8 min
- IC50 [8]: 0.54 µM
- time-dependent inhibition of CYP2D6 (literature / known) ([9]; as reported in the literature): CYP2D6 time-dependent inhibitor
- IC50 [10, 16]: 0.0842 µM
- IC50 [10, 17]: 0.932 µM
- CLRen ([11]; intravenous, 0.5 mg/kg): 7.2* mL/min/kg
- Clast ([11]; oral gavage, 2.5 mg/Kg): 8.07 ng/mL
- Tlast ([11]; oral gavage, 2.5 mg/Kg): 16 h

Compound: CN1[C@@H]2CC[C@H]1C[C@@H](OC(=O)c1c[nH]c3ccccc13)C2 [Tropisetron]
- pKi [12]: 8.5-8.8

- Fold-change Relative to Parent [13]: 2.1
- IC50 [13]: 31.8 µM
- Fold-change Relative to Parent [1]: 23
- IC50 ([1]; read-out: IC50): 0.00016 M
- Fold-change Relative to Parent [2]: 25
- IC50 [2]: 2.05 µM and 2.06 µM
- chemical stability [5]: chemically stable
- metabolism by human recombinant CYP2D6 enzyme [14]: to a lesser degree than metoclopramide
- Fold-change Relative to Parent [10]: 41
- IC50 [10, 16]: 3.45 µM
- IC50 [10, 17]: 4.65 µM and 13.1 µM
Compound: CCN(CCNC(=O)c1cc(Cl)c(N)cc1OC)CCOCCOCCOC [mPEG3-N-Metoclopramide]

- Fold-change Relative to Parent [13]: 3.8
- IC50 [13]: 58.1 µM
- Fold-change Relative to Parent [1]: 156
- IC50 ([1]; read-out: IC50): 0.00107 M
- Fold-change Relative to Parent [2]: 44.1
- IC50 [2]: 3.62 µM
- chemical stability [5]: chemically stable
- metabolism by human recombinant CYP2D6 enzyme [14]: to a lesser degree than metoclopramide
- Fold-change Relative to Parent [10]: 98.5
- IC50 [10, 16]: 8.29 µM
- IC50 [10, 17]: 15.1 µM
Compound: CCN(CCNC(=O)c1cc(Cl)c(N)cc1OC)CCOCCOCCOCCOCCOC [mPEG5-N-Metoclopramide]

- Fold-change Relative to Parent [13]: 3.8
- IC50 [13]: 57.8 µM
- Fold-change Relative to Parent [1]: 129
- IC50 ([1]; read-out: IC50): 0.000885 M
- Fold-change Relative to Parent [2]: 52.05
- IC50 [2]: 4.27 µM and 4.28 µM
- chemical stability [5]: chemically stable
- metabolism by human recombinant CYP2D6 enzyme [14]: to a lesser degree than metoclopramide
- Fold-change Relative to Parent [10]: 92.1
- IC50 [10, 16]: 7.75 µM
Compound: CCN(CCNC(=O)c1cc(Cl)c(N)cc1OC)CCOCCOCCOCCOCCOCCOC [mPEG6-N-Metoclopramide]

Compound: Fc1ccc([C@@H]2CCNC[C@H]2COc2ccc3c(c2)OCO3)cc1 [paroxetine]
- time-dependent inhibition of CYP2D6 (literature / known) [9]: time-dependent inhibitor of CYP2D6

Source: patent publication US10434181B2, “Oligomer-containing benzamide-based compounds” (Nektar Therapeutics, priority 2012, dated 2019)
